Assay results as given in the NIST ThermoML archive (doi:10.1021/je200825j).

Details: Liquid mixture 1, Drop weight

CCCCCCCCCC [decane] + O
Details | interfacial tension [mN/m]
297.85 K, 110 kPa | 51.96
323.35 K, 180 kPa | 47.78
323.35 K, 22250 kPa | 48.88
323.35 K, 39800 kPa | 49.11
343.45 K, 150 kPa | 46.28
343.45 K, 22850 kPa | 47.68
343.45 K, 49020 kPa | 48.39
374.25 K, 200 kPa | 42.87
374.25 K, 23000 kPa | 44.13
374.25 K, 47150 kPa | 45.21
403.05 K, 400 kPa | 39.59
403.05 K, 24500 kPa | 40.33
403.05 K, 48000 kPa | 40.9
442.85 K, 1150 kPa | 32.36
442.85 K, 46400 kPa | 36.89
